We go through three molecules from patent US7129267B2, “Methods for SHP1 mediated neuroprotection” (Janssen Pharmaceutica N.V., priority 2002, dated 2006).

The structures appear in SMILES notation.

For the assay, the target named is SHP1 (Homo sapiens, UniProt P29350). The experiment in a line: SHP1 tyrosine phosphatase activity inhibition assay. The class given is biochemical. As to conditions: under the assay conditions. An excerpt: The invention further provides a method of identifying an inhibitor of a SHP1 tyrosine phosphatase activity, comprising the steps of: • 1) contacting a test compound with a SHP1 protein or an active fragment thereof; and • 2) determining the ability of the test compound to decrease the tyrosine phosphatase activity of SHP1.
SHP1, sequence (P29350 whole entry, the tested form may be a part): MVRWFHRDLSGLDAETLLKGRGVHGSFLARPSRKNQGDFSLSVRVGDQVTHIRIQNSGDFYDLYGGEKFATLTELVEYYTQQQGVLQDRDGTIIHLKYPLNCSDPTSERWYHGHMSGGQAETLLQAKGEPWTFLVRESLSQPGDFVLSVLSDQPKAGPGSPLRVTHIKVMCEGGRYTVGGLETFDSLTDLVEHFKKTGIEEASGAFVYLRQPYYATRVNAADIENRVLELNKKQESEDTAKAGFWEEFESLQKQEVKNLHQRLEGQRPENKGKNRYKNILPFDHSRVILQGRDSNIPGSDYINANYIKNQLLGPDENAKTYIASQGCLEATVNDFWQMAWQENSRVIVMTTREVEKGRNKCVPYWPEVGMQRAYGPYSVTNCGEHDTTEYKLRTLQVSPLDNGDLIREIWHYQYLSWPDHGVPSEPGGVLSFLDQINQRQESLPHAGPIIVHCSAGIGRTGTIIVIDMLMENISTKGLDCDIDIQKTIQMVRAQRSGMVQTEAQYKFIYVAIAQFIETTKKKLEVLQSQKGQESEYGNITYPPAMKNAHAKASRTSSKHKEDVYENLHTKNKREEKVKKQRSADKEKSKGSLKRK
A variety of assay methods can be used to determine the effect of the compound on the tyrosine phosphatase activity of SHP1. Some of the assay methods are disclosed in WO99/54450. For example, SHP1 phosphotase activity can be measured as a function of the ability of SHP1 to dephosphorylate a substrate, such as a phosphorylated JAK2. In particular, a phosphorylated peptide derived from JAK2. The dephosphorylation reaction can be monitored using a malachite green assay (Lanzetta et al., Anal Biochem. 1979, 100:95–7), which measures the release of inorganic phosphate from the substrate. Alternatively, SHP1 phosphotase activity can be measured in vivo by changes in cellular physiology affected by the SHP1 phosphotase activity, such as the inactivation of the EPOR signal transduction pathway.
Compounds of Formula I, II, and III were identified as inhibitors for SHP1 tyrosine phosphatase activity using methods of the invention.
As for `O=C(O)/C=C/c1ccc(/C=C/C(=O)O)s1`, the IC50 is 22 µM.

On to `CC(=O)Nc1ccc(/C=C2/SC(=S)NC2=O)cc1`, for which half-maximal inhibition (IC50) was put at 25.7 µM.

The molecule `O=C1CSC(=S)N1CNc1ccc(NCN2C(=O)CSC2=S)cc1` showed a 50% inhibitory concentration (IC50) of 4.3 µM.

As a reminder, the IC50 is the concentration needed to halve the response being measured.
